In patent US10543212B2, “Substituted amines for treating cardiac diseases” (Cardurion Pharmaceuticals, LLC, priority 2017, dated 2020):

target: T1, Full-length, GST-tagged, human CaMKIIδ (Homo sapiens, UniProt Q13557); assay: CaMKIIδ binding assay (TR-FRET with BODIPY-labeled probe ligand); details: CaMKIIδ binding assay; activity class per Table 2
T1 construct: Full-Length, Glutathione-S-Transferase(GST)-Tagged, Human CaMKIIδ was purchased from Carna Biosciences; purchased Carna Biosciences 02-111
T1 sequence (Q13557 1-478 isoform Q13557-12): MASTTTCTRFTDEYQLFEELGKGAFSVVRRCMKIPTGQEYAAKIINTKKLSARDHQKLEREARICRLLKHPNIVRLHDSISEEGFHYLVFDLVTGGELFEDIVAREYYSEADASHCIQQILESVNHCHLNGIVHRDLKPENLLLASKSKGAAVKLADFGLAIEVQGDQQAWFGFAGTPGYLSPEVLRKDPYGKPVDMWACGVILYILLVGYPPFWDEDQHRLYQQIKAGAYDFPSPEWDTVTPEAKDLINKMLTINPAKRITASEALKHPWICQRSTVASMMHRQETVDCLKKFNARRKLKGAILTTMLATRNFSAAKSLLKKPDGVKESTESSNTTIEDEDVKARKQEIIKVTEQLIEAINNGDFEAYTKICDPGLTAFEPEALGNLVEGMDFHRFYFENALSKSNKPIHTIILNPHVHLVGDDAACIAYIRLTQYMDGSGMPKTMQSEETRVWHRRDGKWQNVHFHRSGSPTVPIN
Summary of the method: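 TR-FRET probe-displacement binding: 0.5 nM GST-CaMKIIδ with 10 μg/mL calmodulin, 1 mM CaCl2, 0.21 nM Tb-anti-GST Ab and 300 nM BODIPY probe in HEPES pH 7.6 buffer. Eight-point 4-fold dilutions, 1 hr at room temperature. IC50 from logistic fit; 100% inhibition defined by 3 μM parent compound.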

SMILES | IC50
C[C@@H](Cn1cnnn1)Oc1cc(-c2cnc(Nc3cn([C@H]4C[C@H](N)C4)nc3OCC(F)(F)F)nc2)ccc1Cl [Example 941, 5-(3-(((S)-1-(1H-tetrazol-1-yl)propan-2-yl)oxy)-4-chlorophenyl)-N-(1-(trans-3-aminocyclobutyl)-3-(2,2,2-trifluoroethoxy)-1H-pyrazol-4-yl)pyrimidin-2-amine] | < 10 nM
C[C@@H](Cn1cnnn1)Oc1cc(-c2cnc(Nc3cn([C@H]4C[C@H](NC5CCOCC5)C4)nc3OCC(F)(F)F)nc2)ccc1Cl [Example 942, 5-(3-(((S)-1-(1H-tetrazol-1-yl)propan-2-yl)oxy)-4-chlorophenyl)-N-(1-(trans-3-((tetrahydro-2H-pyran-4-yl)amino)cyclobutyl)-3-(2,2,2-trifluoroethoxy)-1H-pyrazol-4-yl)pyrimidin-2-amine] | < 10 nM
C[C@@H](Cn1cnnn1)Oc1cc(-c2cnc(Nc3cn([C@H]4C[C@H](N5CCOCC5)C4)nc3OCC(F)(F)F)nc2)ccc1Cl [Example 943, 5-(3-(((S)-1-(1H-tetrazol-1-yl)propan-2-yl)oxy)-4-chlorophenyl)-N-(1-(trans-3-morpholinocyclobutyl)-3-(2,2,2-trifluoroethoxy)-1H-pyrazol-4-yl)pyrimidin-2-amine] | < 10 nM
[2H]C1(N2CC3(CC(n4cc(Nc5ncc(-c6ccc(Cl)c(O[C@@H](C)Cn7cnnn7)c6)cn5)c(OCC(F)(F)F)n4)C3)C2)CCOCC1 [Example 944, 5-(4-chloro-3-{[(2S)-1-(1H-tetrazol-1-yl)propan-2-yl]oxy}phenyl)-N-(1-{2-[(4-^2H)tetrahydro-2H-pyran-4-yl]-2-azaspiro[3.3]heptan-6-yl}-3-(2,2,2-trifluoroethoxy)-1H-pyrazol-4-yl)pyrimidin-2-amine] | < 10 nM
C[C@@H](Cn1cnnn1)Oc1cc(-c2cnc(Nc3cn(C4CC5(C4)CN(C4CCC4)C5)nc3OC3COC3)nc2)ccc1Cl [Example 945, (S)-5-(3-((1-(1H-tetrazol-1-yl)propan-2-yl)oxy)-4-chlorophenyl)-N-(1-(2-cyclobutyl-2-azaspiro[3.3]heptan-6-yl)-3-(oxetan-3-yloxy)-1H-pyrazol-4-yl)pyrimidin-2-amine] | < 10 nM
CC(C)c1nn(C2CC3(C2)CN(CC(C)(C)O)C3)cc1Nc1ncc(-c2ccc(Cl)c(O[C@@H](C)Cn3cnnn3)c2)cn1 [Example 947, (S)-1-(6-(4-((5-(3-((1-(1H-tetrazol-1-yl)propan-2-yl)oxy)-4-chlorophenyl)pyrimidin-2-yl)amino)-3-isopropyl-1H-pyrazol-1-yl)-2-azaspiro[3.3]heptan-2-yl)-2-methylpropan-2-ol] | < 10 nM
C[C@@H](Cn1cnnn1)Oc1cc(-c2cnc(Nc3cn(C4CC5(C4)CN(C(=O)OC(C)(C)C)C5)nc3OCC(F)(F)F)nc2)ccc1C(F)F [Example 948, tert-butyl (S)-6-(4-((5-(3-((1-(1H-tetrazol-1-yl)propan-2-yl)oxy)-4-(difluoromethyl)phenyl)pyrimidin-2-yl)amino)-3-(2,2,2-trifluoroethoxy)-1H-pyrazol-1-yl)-2-azaspiro[3.3]heptane-2-carboxylate] | ≥ 100 nM
C[C@@H](Cn1cnnn1)Oc1cc(-c2cnc(Nc3cn(C4CC5(CNC5)C4)nc3OCC(F)(F)F)nc2)ccc1C(F)F [Example 949, (S)-5-(3-((1-(1H-tetrazol-1-yl)propan-2-yl)oxy)-4-(difluoromethyl)phenyl)-N-(1-(2-azaspiro[3.3]heptan-6-yl)-3-(2,2,2-trifluoroethoxy)-1H-pyrazol-4-yl)pyrimidin-2-amine] | < 10 nM
C[C@@H](Cn1cnnn1)Oc1cc(-c2cnc(Nc3cn(C4CC5(C4)CN(C4COC4)C5)nc3OCC(F)(F)F)nc2)ccc1C(F)F [Example 950, (S)-5-(3-((1-(1H-tetrazol-1-yl)propan-2-yl)oxy)-4-(difluoromethyl)phenyl)-N-(1-(2-(oxetan-3-yl)-2-azaspiro[3.3]heptan-6-yl)-3-(2,2,2-trifluoroethoxy)-1H-pyrazol-4-yl)pyrimidin-2-amine] | < 10 nM
C[C@@H](Cn1cnnn1)Oc1cc(-c2cnc(Nc3cn(C4CC5(C4)CN(c4ncccn4)C5)nc3OCC(F)(F)F)nc2)ccc1Cl [Example 952, (S)-5-(3-((1-(1H-tetrazol-1-yl)propan-2-yl)oxy)-4-chlorophenyl)-N-(1-(2-(pyrimidin-2-yl)-2-azaspiro[3.3]heptan-6-yl)-3-(2,2,2-trifluoroethoxy)-1H-pyrazol-4-yl)pyrimidin-2-amine] | < 10 nM
CCC1(N2CC3(CC(n4cc(Nc5ncc(-c6ccc(Cl)c(O[C@@H](C)Cn7cnnn7)c6)cn5)c(C(C)C)n4)C3)C2)CCOCC1 [Example 953, (S)-5-(3-((1-(1H-tetrazol-1-yl)propan-2-yl)oxy)-4-chlorophenyl)-N-(1-(2-(4-ethyltetrahydro-2H-pyran-4-yl)-2-azaspiro[3.3]heptan-6-yl)-3-isopropyl-1H-pyrazol-4-yl)pyrimidin-2-amine] | < 10 nM
C[C@@H](Cn1cnnn1)Oc1cc(-c2cnc(Nc3cn(C4CC5(C4)CN(C4(C)CCOC4)C5)nc3OCC(F)(F)F)nc2)ccc1Cl (stereo partly drawn) [Example 954, 5-(3-(((S)-1-(1H-tetrazol-1-yl)propan-2-yl)oxy)-4-chlorophenyl)-N-(1-(2-(3-methyltetrahydrofuran-3-yl)-2-azaspiro[3.3]heptan-6-yl)-3-(2,2,2-trifluoroethoxy)-1H-pyrazol-4-yl)pyrimidin-2-amine] | < 10 nM
CCC1(N2CC3(CC(n4cc(Nc5ncc(-c6ccc(Cl)c(O[C@@H](C)Cn7cnnn7)c6)cn5)c(OCC(F)(F)F)n4)C3)C2)CCOCC1 [Example 955, (S)-5-(3-((1-(1H-tetrazol-1-yl)propan-2-yl)oxy)-4-chlorophenyl)-N-(1-(2-(4-ethyltetrahydro-2H-pyran-4-yl)-2-azaspiro[3.3]heptan-6-yl)-3-(2,2,2-trifluoroethoxy)-1H-pyrazol-4-yl)pyrimidin-2-amine] | < 10 nM
CC(C)c1nn(C2CC3(C2)CN(C2(C)CCOC2)C3)cc1Nc1ncc(-c2ccc(Cl)c(O[C@@H](C)Cn3cnnn3)c2)cn1 (stereo partly drawn) [Example 956, 5-(3-(((S)-1-(1H-tetrazol-1-yl)propan-2-yl)oxy)-4-chlorophenyl)-N-(3-isopropyl-1-(2-(3-methyltetrahydrofuran-3-yl)-2-azaspiro[3.3]heptan-6-yl)-1H-pyrazol-4-yl)pyrimidin-2-amine] | < 10 nM
CCC(=O)c1nn(C2CC3(C2)CN(C2CCOCC2)C3)cc1Nc1ncc(-c2ccc(Cl)c(O[C@@H](C)Cn3cnnn3)c2)cn1 [Example 958, (S)-1-(4-((5-(3-((1-(1H-tetrazol-1-yl)propan-2-yl)oxy)-4-chlorophenyl)pyrimidin-2-yl)amino)-1-(2-(tetrahydro-2H-pyran-4-yl)-2-azaspiro[3.3]heptan-6-yl)-1H-pyrazol-3-yl)propan-1-one] | < 10 nM
C[C@@H](Cn1cnnn1)Oc1cc(-c2cnc(Nc3cn(C4CC5(C4)CN(C4CCOCC4)C5)nc3C(F)(F)C(F)(F)F)nc2)ccc1Cl [Example 959, (S)-5-(3-((1-(1H-tetrazol-1-yl)propan-2-yl)oxy)-4-chlorophenyl)-N-(3-(perfluoroethyl)-1-(2-(tetrahydro-2H-pyran-4-yl)-2-azaspiro[3.3]heptan-6-yl)-1H-pyrazol-4-yl)pyrimidin-2-amine] | < 10 nM
CC(C)c1nn(C2CC3(C2)CN(C2(C)CCOCC2)C3)cc1Nc1ncc(-c2ccc(Cl)c(O[C@@H](C)Cn3cnnn3)c2)cn1 [Example 960, (S)-5-(3-((1-(1H-tetrazol-1-yl)propan-2-yl)oxy)-4-chlorophenyl)-N-(3-isopropyl-1-(2-(4-methyltetrahydro-2H-pyran-4-yl)-2-azaspiro[3.3]heptan-6-yl)-1H-pyrazol-4-yl)pyrimidin-2-amine] | < 10 nM
C[C@@H](Cn1cnnn1)Oc1cc(-c2cnc(Nc3cn(C4CC5(C4)CN(C4COCOC4)C5)nc3OCC(F)(F)F)nc2)ccc1Cl [Example 965, (S)—N-(1-(2-(1,3-dioxan-5-yl)-2-azaspiro[3.3]heptan-6-yl)-3-(2,2,2-trifluoroethoxy)-1H-pyrazol-4-yl)-5-(3-((1-(1H-tetrazol-1-yl)propan-2-yl)oxy)-4-chlorophenyl)pyrimidin-2-amine] | < 10 nM
CC(=O)OC(C)(C)CN1CC2(CC(n3cc(Nc4ncc(-c5ccc(Cl)c(O[C@@H](C)Cn6cnnn6)c5)cn4)c(C(F)(F)F)n3)C2)C1 [Example 974, (S)-1-(6-(4-((5-(3-((1-(1H-tetrazol-1-yl)propan-2-yl)oxy)-4-chlorophenyl)pyrimidin-2-yl)amino)-3-(trifluoromethyl)-1H-pyrazol-1-yl)-2-azaspiro[3.3]heptan-2-yl)-2-methylpropan-2-yl acetate] | < 10 nM
CC(=O)OC(C)(C)CN1CC2(CC(n3cc(Nc4ncc(-c5ccc(Cl)c(O[C@@H](C)Cn6cnnn6)c5)cn4)c(C(C)C)n3)C2)C1 [Example 975, (S)-1-(6-(4-((5-(3-((1-(1H-tetrazol-1-yl)propan-2-yl)oxy)-4-chlorophenyl)pyrimidin-2-yl)amino)-3-isopropyl-1H-pyrazol-1-yl)-2-azaspiro[3.3]heptan-2-yl)-2-methylpropan-2-yl acetate] | < 10 nM
COCCN1CC2(CC(n3cc(Nc4ncc(-c5ccc(Cl)c(O[C@@H](C)Cn6cnnn6)c5)cn4)c(OCC(F)(F)F)n3)C2)C1 [Example 979, (S)-5-(3-((1-(1H-tetrazol-1-yl)propan-2-yl)oxy)-4-chlorophenyl)-N-(1-(2-(2-methoxyethyl)-2-azaspiro[3.3]heptan-6-yl)-3-(2,2,2-trifluoroethoxy)-1H-pyrazol-4-yl)pyrimidin-2-amine] | < 10 nM
CO[C@H]1CC[C@H](N2CC3(CC(n4cc(Nc5ncc(-c6ccc(Cl)c(O[C@@H](C)Cn7cnnn7)c6)cn5)c(C(C)C)n4)C3)C2)CC1 [Example 980, 5-(3-(((S)-1-(1H-tetrazol-1-yl)propan-2-yl)oxy)-4-chlorophenyl)-N-(3-isopropyl-1-(2-((1r,4r)-4-methoxycyclohexyl)-2-azaspiro[3.3]heptan-6-yl)-1H-pyrazol-4-yl)pyrimidin-2-amine] | < 10 nM
